The target in one assay is T1, Rat aorta α1D (Rattus norvegicus, UniProt P23944).
T1 construct: from tissue; host or cells: rat thoracic aorta, helicoidal strips
T1 sequence (P23944 1-561): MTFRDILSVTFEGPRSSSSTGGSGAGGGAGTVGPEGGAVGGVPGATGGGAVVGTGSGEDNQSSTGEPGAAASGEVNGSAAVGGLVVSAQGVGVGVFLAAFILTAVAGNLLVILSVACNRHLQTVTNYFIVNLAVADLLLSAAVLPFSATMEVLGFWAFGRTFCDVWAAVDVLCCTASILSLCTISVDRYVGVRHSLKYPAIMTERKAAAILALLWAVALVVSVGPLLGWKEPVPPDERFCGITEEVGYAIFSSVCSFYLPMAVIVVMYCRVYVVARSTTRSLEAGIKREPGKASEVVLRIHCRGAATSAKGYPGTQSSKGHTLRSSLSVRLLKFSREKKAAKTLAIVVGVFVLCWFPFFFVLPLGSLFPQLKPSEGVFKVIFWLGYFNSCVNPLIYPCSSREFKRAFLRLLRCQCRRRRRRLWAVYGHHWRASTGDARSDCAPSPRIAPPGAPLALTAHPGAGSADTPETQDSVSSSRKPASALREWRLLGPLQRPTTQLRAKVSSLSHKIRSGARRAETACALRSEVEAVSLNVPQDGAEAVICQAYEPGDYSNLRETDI
The assay can be described thus: Functional antagonism of noradrenaline-induced contraction, rat aorta strips. To be noted: noradrenaline as agonist, 30 minutes incubation, Schild plot; read-out: Functional affinity pKB, Rat aorta α1D (converted). The format is cell-based, Sprague Dawley rats. The protocol: In vitro assessment of functional antagonism for α1-adrenoceptor subtypes
Thoracic aorta was obtained from Sprague Dawley rats, cut in helicoidal strips and placed in Krebs solution containing desmethylimipramine (0.1 µM), corticosterone (1 µM), propranol (1 µM) and yohimbine (0.1 µM). The strips were mounted for isotonic tension recording in an organ bath containing the above Krebs buffer enriched and aerated constantly with 95% O2 and 5% CO2, maintained at 37°C and loaded with 1.5 g. After an equilibration period, the strips were primed twice with 10 µM noradrenaline, then concentration/response-to-the-agonist curves were constructed before (basal) and after 30 minutes incubation with single antagonist concentrations (response). The Schild-plot parameters were evaluated by linear-regression analysis according to Tallarida and Murray (Manual of Pharmacologic Calculations with Computer Programs, 53-56, Springer-Verlag).

Assay [1] has as its target T2, human recombinant α1a adrenoceptor (Homo sapiens, UniProt P35348).
T2 construct: expressed in transfected cells; host or cells: CHO cells (membranes)
T2 sequence (P35348 1-466): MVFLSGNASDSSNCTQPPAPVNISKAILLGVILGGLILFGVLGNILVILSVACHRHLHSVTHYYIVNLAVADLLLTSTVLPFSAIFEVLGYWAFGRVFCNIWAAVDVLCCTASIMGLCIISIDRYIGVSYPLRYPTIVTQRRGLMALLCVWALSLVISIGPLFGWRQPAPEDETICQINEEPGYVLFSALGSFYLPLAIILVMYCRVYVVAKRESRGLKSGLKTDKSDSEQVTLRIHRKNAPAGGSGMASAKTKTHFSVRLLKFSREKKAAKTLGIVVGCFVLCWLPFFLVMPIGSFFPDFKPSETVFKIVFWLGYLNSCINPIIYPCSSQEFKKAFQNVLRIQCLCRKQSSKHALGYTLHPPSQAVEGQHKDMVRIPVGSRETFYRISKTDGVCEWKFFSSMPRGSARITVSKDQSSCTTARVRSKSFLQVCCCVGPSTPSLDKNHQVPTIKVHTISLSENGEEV
The assay can be described thus: Radioligand binding ([3H]prazosin) on membranes of CHO cells expressing cloned α1a adrenoceptor. To be noted: read-out: Affinity (Ki) α1a. The procedure: The determination of affinity for cloned subtypes of human α1 adrenergic receptors was performed in membranes from CHO cells (chinese hamster ovary cells) transfected by electroporation with DNA expressing the genes encoding each α1-adrenoceptor subtype, namely α1a, α1b and α1d.. Cloning and stable expression of the human α1-adrenoceptor gene were performed as previously described (Testa et al., Pharmacol. Comm. 6, 79-86 (1995)). CHO cell membranes were incubated in […] Tris pH 7.4 with 0.2 nM [^3H]prazosin, in a final volume of 1.02 ml for 30 minutes at 25°C, in the absence or presence of competing drugs (1 pM-10 µM). Non-specific binding was determined in the presence of 10 µM phentolamine. Incubation was stopped by addition of ice-cold Tris buffer and rapid filtration through 0.2% polyethyleneimine pretreated Schleicher & Schuell GF52 filters. […] The HeLa cells were grown as monolayers in Dulbecco's modified Eagle's medium (DMEM), supplemented with 10% foetal calf serum and gentamicin (100 µg/ml), 5% CO2, at 37°C. The cells were detached from the growth flask at 95% confluence by a cell scraper and were lysed in ice-cold 5 mM Tris and 5-mM EDTA buffer (pH 7.4). The homogenates were centrifuged at 40000 x g x 20 minutes and the membranes were re-suspended in a small volume of ice-cold 5 mM Tris and 5-mM EDTA buffer (pH 7.4) and immediately frozen and stored at -70°C until use. On the experiment day, the cell membranes were re-suspended in a buffer containing 50 mM Tris (pH 7.4), 2.5 mM MgCl2, 10 µM pargyline (Fargin et al., Nature 335, 358-360 (1988)). […] The incubation was stopped by addition of ice-cold Tris buffer and rapid filtration through 0.2%-polyethyleneimine-pretreated Schleicher & Schuell filters. The inhibition of specific binding of the radioligands by the drugs was analysed to estimate the IC50 value by using the non-linear curve-fitting programme Allfit (De Lean et al., Am. J. Physiol. 235, E97-E102 (1978)). The IC50 value was converted to an affinity constant (Ki) by the equation of Cheng & Prusoff (Biochem. Pharmacol. 22, 3099-3108 (1973)). Data were expressed as mean of Ki.

The mark [2] stands for this setting: human cloned receptor, CHO cell membranes, 0.2 nM [3H]prazosin.

Like-named read-outs stand apart in the source and are kept apart here.

What is called Ki is a measure of affinity in units of concentration, obtained from inhibition or displacement.

For `O=C1CC2(CCCC2)CC(=O)N1CCN1CCN(c2cc(Cl)ccc2Cl)CC1` [Example 1, 8-{2-[4-(2,5-Dichlorophenyl)-1-piperazinyl]-ethyl}-8-azaspiro[4.5]decane-7,9-dione], the Kb at Rat aorta α1D was 1.02 nM.

As for `O=C1CC2(CCCC2)CC(=O)N1CCN1CCN(c2cc(I)ccc2Cl)CC1` [Example 10, 8-{2-[4-(2-Chloro-5-iodophenyl)-1-piperazinyl]-ethyl}-8-azaspiro[4.5]decane-7,9-dione], the Ki in assay [1] (setting [2]) came out at 479 nM.

Regarding `O=C1CCCC(=O)N1CCN1CCN(c2cc(Cl)ccc2Cl)CC1` [Example 2, 1-{2-[4-(2,5-Dichlorophenyl)-1-piperazinyl]-ethyl}-piperidinyl-2,6-dione], the Ki in assay [1] (setting [2]) stood at 77.9 nM. Consider `Cc1ccc(F)c(N2CCN(CCN3C(=O)CC4(CCCC4)CC3=O)CC2)c1` [Example 4, 8-{2-[4-(2-Fluoro-5-methylphenyl)-1-piperazinyl]-ethyl}-8-azaspiro[4.5]decane-7,9-dione], for which the Ki in assay [1] (setting [2]) was more than 1000 nM.

With `O=C1CC2(C=CN1CCN1CCN(c3cc(Cl)ccc3Cl)CC1)CCCC2` [Example 20, 8-{2-[4-(2,5-Dichlorophenyl)-1-piperazinyl]-ethyl}-8-azaspiro[4.5]dec-9,10-en-7-one], in assay [1], the inhibition constant Ki is 27.2 nM.

For the compound `Cc1ccc(C)c(N2CCN(CCN3C(=O)CC4(CCCC4)CC3=O)CC2)c1` [Example 5, 8-{2-[4-(2,5-Dimethylphenyl)-1-piperazinyl]-ethyl}-8-azaspiro[4.5]decane-7,9-dione], the Ki in assay [1] (setting [2]) worked out at 119 nM.

`N#Cc1ccc(Cl)cc1N1CCN(CCN2C(=O)CC3(CCCC3)CC2=O)CC1` [Example 8, 8-{2-[4-(5-Chloro-2-cyanophenyl)-1-piperazinyl]-ethyl}-8-azaspiro[4.5]decane-7,9-dione]: in assay [1] (setting [2]), the inhibition constant Ki stood at 503 nM.

On to `O=C1CC2(CCCC2)CC(=O)N1CCN1CCC(c2cc(Cl)ccc2Cl)CC1` [Example 17, 8-{2-[4-(2,5-Dichlorophenyl)-1-piperidinyl]-ethyl}-8-azaspiro[4.5]decane-7,9-dione], for which, in assay [1] (setting [2]), the Ki was 119 nM. In the case of `O=C1CC2(CCCC2)CC(=O)N1CCN1CCN(c2cc(Br)ccc2Br)CC1` [Example 7, 8-{2-[4-(2,5-Dibromophenyl)-1-piperazinyl]-ethyl}-8-azaspiro[4.5]decane-7,9-dione], the inhibitory constant (Ki) in assay [1] (setting [2]) was determined as 114 nM. Take `CCC1(C)CC(=O)N(CCN2CCN(c3cc(Cl)ccc3Cl)CC2)C(=O)C1` [Example 13, 1-{2-[4-(2,5-Dichlorophenyl)-1-piperazinyl]-ethyl}-4-ethyl-4-methylpiperidinyl-2,6-dione]: in assay [1] (setting [2]), the inhibitory constant (Ki) stood at 59.8 nM. In the case of `O=C1CC2(CCCC2)CC(=O)N1CCN1CCN(c2cc(F)ccc2Cl)CC1` [Example 9, 8-{2-[4-(2-Chloro-5-fluorophenyl)-1-piperazinyl]-ethyl}-8-azaspiro[4.5]decane-7,9-dione], in assay [1] (setting [2]), the Ki turned out to be 108 nM. With `O=C1CC2(CCCC2)CC(=O)N1CCN1CCN(c2cc(C(F)(F)F)ccc2F)CC1` [Example 6, 8-{2-[4-(2-Fluoro-5-trifluoromethylphenyl)-1-piperazinyl]-ethyl}-8-azaspiro[4.5]decane-7,9-dione], the Ki in assay [1] (setting [2]) is more than 1000 nM. With `CC(CN1CCN(c2cc(Cl)ccc2Cl)CC1)N1C(=O)CC2(CCCC2)CC1=O` (stereo not drawn) [Example 16, 8-{2-[4-(2,5-Dichlorophenyl)-1-piperazinyl]-1-methylethyl}-8-azaspiro[4.5]decane-7,9-dione], the inhibition constant (Ki) in assay [1] (setting [2]) was determined as 187 nM. `CN(CCN1C(=O)CC2(CCCC2)CC1=O)CCN(C)c1cc(Cl)ccc1Cl` [Example 18, N-(2,5-Dichlorophenyl)-N'-{2-(7,9-dioxo-8-azaspiro[4.5]decane-8-yl)-ethyl}-N,N'-dimethyl-1,2-diaminoethane]: the inhibition constant Ki in assay [1] (setting [2]) is 786 nM. On the same count and under the same terms, the value for `O=C1CC2(CCCC2)C(=O)N1CCN1CCN(c2cc(Cl)ccc2Cl)CC1` [Example 14, 2-{2-[4-(2,5-Dichlorophenyl)-1-piperazinyl]-ethyl}-2-azaspiro[4.4]nonane-1,3-dione] was 68.3 nM; that for `O=C1CC2(CCCC2)CCN1CCN1CCN(c2cc(F)c(F)cc2F)CC1` [Example 24, 8-{2-[4-(2,4,5-Trifluorophenyl)-1-piperazinyl]-ethyl}-8-azaspiro[4.5]decane-7-one] was 706 nM. Still for that read-out and setting: the value for `O=C1CC2(CCCCC2)CC(=O)N1CCN1CCN(c2cc(Cl)ccc2Cl)CC1` [Example 11, 3-{2-[4-(2,5-Dichlorophenyl)-1-piperazinyl]-ethyl}-3-azaspiro[5.5]undecane-2,4-dione] was 331 nM.

Take `O=C1CC2(CCC2)CC(=O)N1CCN1CCN(c2cc(Cl)ccc2Cl)CC1` [Example 15, 7-{2-[4-(2,5-Dichlorophenyl)-1-piperazinyl]-ethyl}-7-azaspiro[3.5]nonane-6,8-dione]: the inhibition constant Ki in assay [1] (setting [2]) turned out to be 120 nM.
